Laboratory results published in ChEMBL document CHEMBL1158930, “3'-Formyl-2',4',6'-trihydroxy-5'-methyldihydrochalcone, a Prospective New Agrochemical from Psidium acutangulum” (1990).

Legend:
Format in all cases: functional
Heliothis virescens [1] = assay: Antifeedant activity in Heliothis virescens at 76.7 ug/cm'2 after 4 days relative to control
Heliothis virescens [2] = assay: Antifeedant activity in Heliothis virescens at 76.7 ug/cm'2 after 2 days relative to control
Heliothis virescens [3] = assay: Antifeedant activity in Heliothis virescens at 7.7 ug/cm'2 after 4 days relative to control
Heliothis virescens [4] = assay: Antifeedant activity in Heliothis virescens at 24.8 ug/cm'2 after 2 days relative to control
Heliothis virescens [5] = assay: Antifeedant activity in Heliothis virescens at 247.5 ug/cm'2 after 2 days relative to control
Heliothis virescens [6] = assay: Antifeedant activity in Heliothis virescens at 24.8 ug/cm'2 after 4 days relative to control
Heliothis virescens [7] = assay: Antifeedant activity in Heliothis virescens at 76.7 ug/cm'2 after 6 days relative to control
Heliothis virescens [8] = assay: Antifeedant activity in Heliothis virescens at 7.7 ug/cm'2 after 2 days relative to control
Heliothis virescens [9] = assay: Antifeedant activity in Heliothis virescens at 247.5 ug/cm'2 after 6 days relative to control
Heliothis virescens [10] = assay: Antifeedant activity in Heliothis virescens at 7.7 ug/cm'2 after 6 days relative to control
Heliothis virescens [11] = assay: Antifeedant activity in Heliothis virescens at 24.8 ug/cm'2 after 6 days relative to control
Heliothis virescens [12] = assay: Antifeedant activity in Heliothis virescens at 247.5 ug/cm'2 after 4 days relative to control
Heliothis virescens [13] = assay: Antifeedant activity in Heliothis virescens at 0.25 ug/cm'2 relative to dithane

Work on `Cc1c(O)c(C=O)c(O)c(C(=O)CCc2ccccc2)c1O` yielded an Activity (Heliothis virescens [1]) of 60%, an Activity (Heliothis virescens [2]) of 90% and an Activity (Heliothis virescens [3]) of 60%. The Activity (Heliothis virescens [4]) was 90%, the Activity (Heliothis virescens [5]) was 90% and the Activity (Heliothis virescens [6]) was 60%. For the same molecule, the Activity (Heliothis virescens [7]) was 60%, the Activity (Heliothis virescens [8]) was 60% and the Activity (Heliothis virescens [9]) was 60%. The Activity (Heliothis virescens [10]) was 30%, the Activity (Heliothis virescens [11]) was 30% and the Activity (Heliothis virescens [12]) was 60%. For the same molecule, the Activity (Heliothis virescens [13]) was 90%.
